From patent publication US4198504A, “[3-(Pyridinium)-7-(naphthyiridinyl carbonylamino)acetamido]cephalosporanic acid derivatives” (Bristol-Myers Company, priority 1978, dated 1980)

Experiments:
[1] = system: Pseudomonas aeruginosa A9843; assay: In vivo efficacy, experimental infection in mice, intramuscular treatment, Pseudomonas aeruginosa A9843; parameters: species or system Pseudomonas aeruginosa (infected mice); conditions: A9843, im, 120 h, I.M., 100×LD50 challenge i.p., 5 days, read-out: PD50 Pseudomonas aeruginosa A9843
Experimental: (§1) The in vivo efficacy was evaluated by intramuscular treatment against three kinds of experimental infection in mice.
(§2) The in vivo tests were carried out using the following three pathogenic organisms:
Pseudomonas aeruginosa A9843
(§3) Mice were challenged intraperitoneally with approximately a 100×LD50 dose of the pathogens in a 5% mucin suspension. The mice were treated with test compound by I.M. route immediately after the bacterial challenge.

[2] = Antibiotic blood levels in mice following intramuscular administration (paper disc-agar diffusion, Escherichia coli NIHJ as assay organism); type: in vivo; conditions: mouse, im, I.M., 20 mg./kg.; for half-life: read-out: Blood level, Half-life; for Cmax: read-out: Blood level, Peak Concentration
Experimental: Antibiotic blood levels were determined in mice following intramuscular administration of the test compounds at 20 mg./kg. The blood samples were collected from the orbital sinuses into heparinized capillary tubes at 15, 30, 60 and 120 minutes after administration. The antibiotic concentration was determined by the paper disc-agar diffusion method using Escherichia coli NIHJ as the assay organism.

[3] = system: Ps. aeruginosa; assay: In vitro MIC, serial two-fold agar dilution, primary evaluation Ps (6 strains); type: cell-based; conditions: CBPC = 100%; geometric mean of MICs; Mueller-Hinton agar
Experimental: (§4) Minimun inhibitory concentrations (MIC) were determined by the serial two-fold agar dilution method using Steers' apparatus on Mueller-Hinton agar plate against 31 test organisms for the primary screening and also against 64 strains of Pseudomonas aeruginosa for the secondary evaluation. The results are shown in Table 1 in terms of relative activity with respect to the standard compound CBPC (carbenicillin) which was set at 100%. In each group the calculation was based on the geometric mean of the observed MICs.
Ps. = Ps. aeruginosa (6).

[4] = system: Staphylococcus aureus Smith; assay: In vivo efficacy, experimental infection in mice, intramuscular treatment, Staphylococcus aureus Smith; parameters: species or system Staphylococcus aureus (infected mice); conditions: im, 120 h, I.M., 100×LD50 challenge i.p., 5 days, read-out: PD50 Staphylococcus aureus Smith
Experimental: as §1, §2
Staphylococcus aureus Smith
as §3

[5] = system: Ent. cloacae (3), Pr. vulgaris (1), Pr. morganii (1), S. marcescen (1); assay: In vitro MIC, serial two-fold agar dilution, primary evaluation Gn-II (Ent. cloacae, Pr. vulgaris, Pr. morganii, S. marcescens); type: cell-based; conditions: CBPC = 100%; geometric mean of MICs; Mueller-Hinton agar
Experimental: as §4
GnII = Ent. cloacae (3), Pr. vulgaris (1), Pr. morganii (1), S. marcescen

[6] = system: E. coli (9), Klebsiella sp. (2), Pr. mirabilis (1), Sal. enteritidis (1); assay: In vitro MIC, serial two-fold agar dilution, primary evaluation Gn-I (E. coli, Klebsiella sp., Pr. mirabilis, Sal. enteritidis); type: cell-based; conditions: CBPC = 100%; geometric mean of MICs; Mueller-Hinton agar
Experimental: as §4
GnI = E. coli (9), Klebsiella sp. (2), Pr. mirabilis (1), Sal.

[7] = system: S. aureus; assay: In vitro MIC, serial two-fold agar dilution, primary evaluation Gp (S. aureus, 6 strains); type: cell-based; conditions: CBPC = 100%; geometric mean of MICs; Mueller-Hinton agar
Experimental: as §4
*GP = S. aureus (6 strains);

[8] = system: Escherichia coli Juhl; assay: In vivo efficacy, experimental infection in mice, intramuscular treatment, Escherichia coli Juhl; parameters: species or system Escherichia coli (infected mice); conditions: im, 120 h, I.M., 100×LD50 challenge i.p., 5 days, read-out: PD50 Escherichia coli Juhl
Experimental: as §1, §2, §3

[9] = system: Pseudomonas aeruginosa; assay: In vitro MIC, serial two-fold agar dilution, secondary evaluation against Pseudomonas aeruginosa strains; type: cell-based; conditions: CBPC = 100%; geometric mean of MICs; 61-64 strains
Experimental: as §4

| Structure (SMILES) | ED50 [1] [mg/kg] | half-life [2] [min] | Cmax [2] [ng/mL] | In vitro relative activity, primary evaluation Ps (6) [3] [%] | ED50 [4] [mg/kg] | In vitro relative activity, primary evaluation Gn-II (6) [5] [%] | In vitro relative activity, primary evaluation Gn-I (13) [6] [%] | In vitro relative activity, primary evaluation Gp (6) [7] [%] | ED50 [8] [mg/kg] | In vitro relative activity, secondary, Pseudomonas aeruginosa (61-64) [9] [%] |
| --- | --- | --- | --- | --- | --- | --- | --- | --- | --- | --- |
| NC(=O)c1cc[n+](CC2=C(C(=O)[O-])N3C(=O)C(NC(=O)[C@H](NC(=O)c4cnc5cccnc5c4O)c4ccc(O)cc4)C3SC2)cc1C(=O)O (stereo partly drawn) [BB-S592, 7-[D-α-(4-Hydroxy-1,5-naphthyridine-3-carboxamido)-α-(4-hydroxyphenyl)acetamido]-3-(4-carbamoyl-3-carboxypyridinium)methyl-3-cephem-4-carboxylate] | 38 | 55 | 12000 | 594 | 4.6 | 11 | 121 | 56 | 6.25 | 695 |
| O=C(O)CSc1cc[n+](CC2=C(C(=O)[O-])N3C(=O)C(NC(=O)[C@H](NC(=O)c4cnc5cccnc5c4O)c4ccc(O)cc4)C3SC2)cc1 (stereo partly drawn) [BB-S599, 7-[D-α-(4-Hydroxy-1,5-naphthyridine-3-carboxamido)-α-(4-hydroxyphenyl)acetamido]-3-(4-carboxymethylthiopyridinium)-methyl-3-cephem-4-carboxylate] | 8.4 | 54 | 7800 | 2180 | 2.2 | 83 | 260 | 35 | 2.4 | 2010 |
| O=C([O-])C1=C(C[n+]2cccc(C(=O)O)c2)CSC2C(NC(=O)[C@H](NC(=O)c3cnc4cccnc4c3O)c3ccc(O)c(Cl)c3)C(=O)N12 (stereo partly drawn) [BB-S600, 7-[D-α-(4-Hydroxy-1,5-naphthyridine-3-carboxamido)-α-(3-chloro-4-hydroxyphenyl)acetamido]-3-(3-carboxypyridinium)-methyl-3-cephem-4-carboxylate] | 6.2 | 70 | 6200 | 2340 | 2 | 30 | 107 | 70 | 2.2 | 2500 |
| O=C(O)C=Cc1ccc[n+](CC2=C(C(=O)[O-])N3C(=O)C(NC(=O)[C@H](NC(=O)c4cnc5cccnc5c4O)c4ccc(O)c(Cl)c4)C3SC2)c1 (stereo partly drawn) [BB-S602, 7-[D-α-(4-Hydroxy-1,5-naphthyridine-3-carboxamido)-α-(3-chloro-4-hydroxyphenyl)acetamido]-3-(3-carboxyvinylpyridinium)-methyl-3-cephem-4-carboxylate] | 8.4 | 60 | 8000 | 2080 | 0.8 | 63 | 94 | 58 | 1.4 | 1530 |
| O=C(O)C=Cc1ccc[n+](CC2=C(C(=O)[O-])N3C(=O)C(NC(=O)[C@H](NC(=O)c4cnc5cccnc5c4O)c4ccccc4)C3SC2)c1 (stereo partly drawn) [BB-S603, 7-[D-α-(4-Hydroxy-1,5-naphthyridine-3-carboxamide)-α-phenyl-acetamido]-3-(3-carboxyvinylpyridinium)methyl-3-cephem-4-carboxylate] | 18 | 44 | 9000 | 1150 | 1.15 | 38 | 80 | 73 | 2.2 | 1270 |
